These results are taken from paper PMC6352943, “Novel pyrazolo[3,4-d]pyrimidines: design, synthesis, anticancer activity, dual EGFR/ErbB2 receptor tyrosine kinases inhibitory activity, effects on cell cycle profile and caspase-3-mediated apoptosis” (Journal of Enzyme Inhibition and Medicinal Chemistry, 2019).

Holding throughout (assay): NCI 60 cell line single dose screen (SRB)
Assay type in all cases: cell-based

In one test the test system is HT29. The note with it: Homo sapiens, HT-29; HT29 (colon cancer), single dose 10^−5 M, 48 h; read-out: Growth inhibition percentage. The method, then: (§1) Anticancer activity screening of the newly synthesised compounds was measured in vitro utilising 60 different human tumour cell lines provided by US National Cancer Institute according to previously reported standard procedure[27–29] as follows: Cells are inoculated into 96-well microtitre plates in 100 ml. After cell inoculation, the microtitre plates are incubated at 37 °C, 5% CO2, 95% air and 100% relative humidity for 24 h prior to addition of experimental compounds. After 24 h, two plates of each cell line are fixed in situ with TCA, to represent a measurement of the cell population for each cell line at the time of drug addition (Tz). Experimental compounds are solubilised in dimethyl sulphoxide at 400-fold the desired final maximum test concentration and stored frozen prior to use. At the time of compound addition, an aliquot of frozen concentrate is thawed and diluted to twice the desired final maximum test concentration with complete medium containing […] gentamicin. Aliquots of […] of the compounds dilutions are added to the appropriate microtitre wells already containing 100 ml of medium, resulting in the required final compound concentration. Following compound addition, the plates are incubated for an additional 48 h at 37 °C, 5% CO2, 95% air, and 100% relative humidity. For adherent cells, the assay is terminated by the addition of cold trichloroacetic acid (TCA). Cells are fixed in situ by the gentle addition of 50 ml of cold 50% (w/v) TCA (final concentration, 10% TCA) and incubated for 60 min at 4 °C. The supernatant is discarded, and the plates are washed five times with tap water and air-dried. Sulphorhodamine B (SRB) solution (100 ml) at 0.4% (w/v) in 1% acetic acid is added to each well, and plates are incubated for 10 min at room temperature. After staining, unbound dye is removed by washing five times with 1% acetic acid and the plates are air-dried. Bound stain is subsequently solubilised with 10 mM trizma base, and the absorbance is read on an automated plate reader at a wavelength of 515 nm. For suspension cells, the methodology is the same except that the assay is terminated by fixing settled cells at the bottom of the wells by gently adding 50 ml of 80% TCA (final concentration, 16% TCA). Using the absorbance measurements [time zero, (Tz), control growth, (C), and test growth in the presence of compound (Ti)], the percentage growth is calculated for each compound. Percentage growth inhibition is calculated as: [(Ti – Tz)/(C – Tz)] x 100 for concentrations for which Ti >/=Tz. [(Ti – Tz)/Tz] x 100 for concentrations for which Ti < Tz.

The subject of another test is UACC-257. The note with it: Homo sapiens; UACC-257 (melanoma), single dose 10^−5 M, 48 h; read-out: Growth inhibition percentage. The method, then:
as §1

For the next test, the system named is SK-MEL-2. The note with it: Homo sapiens; SK-MEL-2 (melanoma), single dose 10^−5 M, 48 h; read-out: Growth inhibition percentage. The method, then: as §1
The subject of another test is NCI-H460. The note with it: Homo sapiens; NCI-H460 (non-small cell lung cancer), single dose 10^−5 M, 48 h; read-out: Growth inhibition percentage. How it is done:
as §1

The next test concerns SF-268. Particulars: Homo sapiens; SF-268 (CNS cancer), single dose 10^−5 M, 48 h; read-out: Growth inhibition percentage. How it is done:
as §1

Another test relates to NCI/ADR-RES. Particulars: Homo sapiens; NCI/ADR-RES (ovarian cancer), single dose 10^−5 M, 48 h; read-out: Growth inhibition percentage. The method, then: as §1
The subject of the next test is OVCAR-5. The note with it: Homo sapiens; OVCAR-5 (ovarian cancer), single dose 10^−5 M, 48 h; read-out: Growth inhibition percentage. The method, then:
as §1

The next test concerns SW-620. Particulars: Homo sapiens; SW-620 (colon cancer), single dose 10^−5 M, 48 h; read-out: Growth inhibition percentage. How it is done:
as §1

Another test relates to SK-MEL-5. Particulars: Homo sapiens; SK-MEL-5 (melanoma), single dose 10^−5 M, 48 h; read-out: Growth inhibition percentage. The method, then:
as §1

Another test has as its system SF-295. Particulars: Homo sapiens; SF-295 (CNS cancer), single dose 10^−5 M, 48 h; read-out: Growth inhibition percentage. The method, then: as §1
A further test relates to PC-3. Particulars: Homo sapiens; PC-3 (prostate cancer), single dose 10^−5 M, 48 h; read-out: Growth inhibition percentage. How it is done:
as §1

The subject of a further test is MDA-MB-435. Particulars: Homo sapiens; MDA-MB-435 (melanoma), single dose 10^−5 M, 48 h; read-out: Growth inhibition percentage. The method, then:
as §1

A further test relates to KM12. Particulars: Homo sapiens; KM12 (colon cancer), single dose 10^−5 M, 48 h; read-out: Growth inhibition percentage. How it is done: as §1
Another test relates to NCI-H23. Particulars: Homo sapiens; NCI-H23 (non-small cell lung cancer), single dose 10^−5 M, 48 h; read-out: Growth inhibition percentage. The method, then:
as §1

The test system of another test is RXF 393. The note with it: Homo sapiens; RXF 393 (renal cancer), single dose 10^−5 M, 48 h; read-out: Growth inhibition percentage. How it is done: as §1
The subject of the next test is RPMI-8226. The note with it: Homo sapiens; RPMI-8226 (leukemia), single dose 10^−5 M, 48 h; read-out: Growth inhibition percentage. How it is done:
as §1

A further test deals with U251. The note with it: Homo sapiens, U-251; U251 (CNS cancer), single dose 10^−5 M, 48 h; read-out: Growth inhibition percentage. The method, then: as §1
A further test relates to HCC-2998. Particulars: Homo sapiens; HCC-2998 (colon cancer), single dose 10^−5 M, 48 h; read-out: Growth inhibition percentage. How it is done: as §1
For a further test, the system named is MOLT-4. The note with it: Homo sapiens; MOLT-4 (leukemia), single dose 10^−5 M, 48 h; read-out: Growth inhibition percentage. How it is done:
as §1

In a further test the test system is SR. Particulars: Homo sapiens; SR (leukemia), single dose 10^−5 M, 48 h; read-out: Growth inhibition percentage. How it is done: as §1
Another test has as its system ACHN. Particulars: Homo sapiens; ACHN (renal cancer), single dose 10^−5 M, 48 h; read-out: Growth inhibition percentage. How it is done: as §1

The structures appear in SMILES notation.

The term inhibition denotes the drop in the measured response relative to a control, in per cent. On to `Cc1nn(-c2ccc(F)cc2)c2ncnc(N)c12` [Compound 4, 1–(4-Fluorophenyl)-3-methyl-1H-pyrazolo[3,4-d]pyrimidin-4-amine], for which the inhibition at 10 µM in the test with HT29 was 3.34%; in the test with UACC-257 it was -14.2%; with SK-MEL-2, 1.74%; with NCI-H460, -9.3%; in the test on SF-268, 3.71%; in the test on NCI/ADR-RES, 0.66%. Moreover, the inhibition at 10 µM in the test with OVCAR-5 is -4.61%; in the test with SW-620 it was -18.7%; with SK-MEL-5, 2%; with SF-295, -3.53%; in the test on PC-3 it was 1.03%; in the test with MDA-MB-435 it was -5.15%. Also, the inhibition at 10 µM in the test on KM12 is 3.5%; with NCI-H23, 4.73%; in the test on RXF 393, -17.3%; in the test on RPMI-8226 it was -17.5%; with U251 it was -7.56%; with HCC-2998, -2.52%. For the same compound, the results for the inhibition at 10 µM in the test on MOLT-4, with SR and in the test with ACHN were 0.58%, 3.35% and 0.98%, respectively.
As to `Cc1nn(-c2ccc(F)cc2)c2nc(N)nc(N)c12` [Compound 5, 1–(4-Fluorophenyl)-3-methyl-1H-pyrazolo[3,4-d]pyrimidine-4,6-diamine], the inhibition at 10 µM with HT29 was -6.5%; in the test with UACC-257, -18.7%; in the test on SK-MEL-2, 3.86%; in the test on NCI-H460, -18.8%; in the test with SF-268, -2.3%; in the test with NCI/ADR-RES, -3.45%. Moreover, the inhibition at 10 µM was -1.61% with OVCAR-5; -16.8% in the test on SW-620; 0.86% in the test on SK-MEL-5; -1.89% in the test on SF-295; 3.59% in the test on PC-3; -7.73% in the test on MDA-MB-435. The inhibition at 10 µM with KM12 was 1.24%; in the test with NCI-H23, 11.8%; with RXF 393, -13%; in the test on RPMI-8226, -3.69%; in the test on U251, -6.63%; in the test on HCC-2998 it was 3.79%. The inhibition at 10 µM with MOLT-4 is -0.48%; in the test on SR it was -1.68%; in the test with ACHN, -3.79%.
